Entries after “also recorded” stand apart in the source; their conditions may differ. Where two headings read alike, the source gives them in different places.

The values below come from patent publication US10413541B2, “Oxabicycloheptanes and oxabicycloheptenes for the treatment of depressive and stress disorders” (LIXTE BIOTECHNOLOGY, INC., priority 2015, dated 2019).

What all share (format): cell-based, mice
The test system of assay [1] is GABAB-GIRK currents in LHb neurons. The settings on record: for I-baclofen, residual current independent of GIRKs: barium 1 mM in the bath.
The subject of assay [2] is LHb neurons. The assay is described as follows: Cell-attached recording of spontaneous firing of LHb neurons. The note with it: baclofen application, then CGP54626 10 μM. As to the method: (§1) Animals were anesthetized with Ketamine/Xylazine (50 mg/10 mg Kg-1 i.p.; Sigma-Aldrich, France). The preparation of LHb-containing brain slices was done in bubbled ice-cold 95% O2/5% CO2-equilibrated solution containing (in mM): cholineCl 110; glucose 25; NaHCO3 25; MgCl2 7; ascorbic acid 11.6; Na+-pyruvate 3.1; KCl 2.5; NaH2PO4 1.25; CaCl2 0.5. Sagittal slices (250 μm) were stored at room temperature in 95% O2/5% CO2-equilibrated artificial cerebrospinal fluid (ACSF) containing (in mM): NaCl 124; NaHCO3 26.2; glucose 11; KCl 2.5; CaCl2 2.5; MgCl2 1.3; NaH2PO4 1. Recordings (flow rate of 2.5 ml/min) were made under an Olympus-BX51 microscope (Olympus, France) at 32° C. Currents were amplified, filtered at 5 kHz and digitized at 20 kHz. Access resistance was monitored by a step of −4 mV (0.1 Hz). Experiments were discarded if the access resistance increased more than 20%.
(§2) The internal solution to measure GABAB-GIRK currents and neuronal excitability contained 140 mM potassium gluconate, 4 mM NaCl, 2 mM MgCl2, 1.1 mM EGTA, 5 mM HEPES, 2 mM Na2ATP, 5 mM sodium creatine phosphate, and 0.6 mM Na3GTP (pH 7.3), with KOH. When we measured the synaptic inhibitory or excitatory release the internal solution contained (in mM): CsCl 130; NaCl 4; MgCl2 2; EGTA 1.1; HEPES 5; Na2ATP 2; Na+-creatine-phosphate 5; Na3GTP 0.6, and spermine 0.1. The liquid junction potential was −3 mV. For cell-attached recordings the internal solution consisted in ACSF.
(§3) Cell-attached recordings in ACSF were performed in GΩ seal with a Vc=0 and Hc=0. Whole-cell voltage clamp recordings were achieved to measure GABAB-GIR currents in presence of Bicuculine (10 μM), NBQX (20 μM) and AP5 (50 μM). […] GABAB-GIRK currents were confirmed by antagonism with either 10 μM of CGP54626, a specific GABAB antagonist or 1 mM Ba^2, a selective inhibitor of inward rectifiers. For the GTPγS experiment, 100 μM of GTPγS was added to the internal solution in place of Na3GTP.

In another assay the test system is GIRK channels. The assay is described as follows: GTPγS-induced Ba2+-sensitive outward current (I-GTPγS) in LHb neurons of brain slices. The note with it: GTPγS 100 μM in the internal solution. As to the method:
as §1, §3

Assay [3] relates to LHb neurons. The assay is described as follows: Current-clamp excitability (evoked action potentials, input-output curve) of LHb neurons in slices. The note with it: baclofen bath application, saturating dose. The method, then:
as §1, §2
For the Okadaic acid (OA) and the CaMKII inhibitor KN93 experiments, respectively 100 nM of OA or 10 μM of KN93 were added in the internal solution. For the PP2A inhibitor LB100 experiments, LB100 (0.1 μM) was applied in the bath. Miniature excitatory postsynaptic currents (mEPSCs) were recorded in voltage-clamp mode at −60 mV in presence of bicuculine (10 μM) and TTX (1 μM). Miniature inhibitory postsynaptic currents (mIPSCs) were recorded (−60 mV) in presence of NBQX (20 μM) and TTX (1 μM). EPSCs and IPSCs were evoked through an ACSF filled monopolar glass electrode placed 200 μm from the recording site in the stria medullaris. AMPA:NMDA ratios of evoked-EPSC were obtained by AMPA-EPSC −60 mV/NMDA-EPSCs at +40 mV. Rectification Index (RI) was computed by […]-60/AMPA-EPSC+40. For the experiments in which high-frequency stimulation trains were used to determine presynaptic release probability, QX314 (5 mM) was included in the internal solution to prevent the generation of sodium spikes. Current-clamp experiments, were performed by a series of current steps (negative to positive) injected to induce action potentials (5-10 pA injection current per step, 800 ms).

The mark [4] stands for this setting: KN93 10 μM intracellular dialysis.
Setting [5] is: Okadaic acid 100 nM intracellular dialysis.

On to `C[C@H](NC[C@H](O)CP(=O)(O)CC1CCCCC1)c1ccc(Cl)c(Cl)c1` [CGP54626], for which the “Reversal of I-baclofen” value in assay [1] (CGP54626 10 μM) is “fully reversed; also recorded: readily reversed”. Also, the “Firing rate of LHb neurons” value in the assay with LHb neurons [2] (CTRL mice) is recorded as 3.62±0.65 Hz; in the assay with LHb neurons [2] (FsE mice), 8.23±2.25 Hz.
In the case of `Nc1nc2c(ncn2[C@@H]2O[C@H](COP(=O)(O)OP(=O)(O)OP(O)(O)=S)[C@@H](O)[C@H]2O)c(=O)[nH]1` [GTPγS, reference compound], the “GTPγS-evoked Ba2+-sensitive outward current” value in the assay with GIRK channels (CTRL mice) amounted to 92.55±21.83 pA; in the assay with GIRK channels (FsE mice) it was 38.00±5.27 pA.
With `COc1ccc(S(=O)(=O)N(CCO)c2ccccc2CN(C)C/C=C/c2ccc(Cl)cc2)cc1` [KN93], the I-baclofen current in assay [1] (KN93 10 μM in the internal solution, CTRL mice) is 106.3±18.37 pA. In addition, in assay [1] (setting [4]), the “FsE induced reduction of GABAB-GIRK currents” value was “failed to recover; also recorded: does not affect” and the “I-Baclofen at baseline (control mice)” value is “did not affect”.
Regarding `C=C1[C@@H](O)[C@@H]2O[C@]3(CC[C@H](/C=C/[C@@H](C)[C@@H]4CC(C)=C[C@@]5(O[C@H](C[C@@](C)(O)C(=O)O)CC[C@H]5O)O4)O3)CC[C@H]2O[C@@H]1[C@@H](O)C[C@H](C)[C@H]1O[C@@]2(CCCCO2)CC[C@H]1C` [Okadaic Acid], the I-baclofen current is reported as 130.7±25.25 pA in assay [1] (Okadaic Acid 100 nM in the internal solution, CTRL mice) and 120.4±25.61 pA in assay [1] (Okadaic Acid 100 nM in the internal solution, FsE mice). In addition, the “I-baclofen CTRL vs FsE” value in assay [1] (Okadaic Acid 100 nM intracellular dialysis, listed as OA) is given as “comparable to control mice”; in assay [1] (setting [5]), “no difference between groups”. Besides, the “I-Baclofen at baseline (control mice)” value in assay [1] (setting [5]) was “comparable to naïve condition”.
`NCC(CC(=O)O)c1ccc(Cl)cc1` (centres unmarked) [baclofen]: the I baclofen in assay [1] (1 h after exposure to fox urine (OPE mice)) is 47.4±7.9; in assay [1] (CTRL mice of odor predator exposure paradigm), 110.5±29.1. In addition, the I-baclofen in assay [1] (CTRL mice of restraint stress procedure) stood at 121.7±14.8; in assay [1] (baclofen 100 μM, FsE mice, 1 hour after), 55.4±7.2 pA; in assay [1] (baclofen 100 μM, FsE mice, 1 day after), 59.8±9.6 pA; in assay [1] (baclofen 100 μM, FsE mice, 7 days after), 40.1±9.0 pA; in assay [1] (baclofen 100 μM, FsE mice, 14 days after), 39.6±6.6 pA; in assay [1] (baclofen 100 μM, FsE mice, 30 days after) it was 133.0±26.1 pA. In assay [1] (restraint stress (RS) mice, 1 h after the procedure), this compound had an I-baclofen of 68.3±15.3. The “I-baclofen, residual current independent of GIRKs” value in assay [1] (CTRL mice) is given as 21.3±3.7; in assay [1] (FsE mice), 21.3±9.1. The “Firing of LHb neurons evoked by current steps (20 pA)” value in the assay on LHb neurons [3] (FsE animals) is recorded as “only partially decreased”; in the assay on LHb neurons [3] (control mice), “significantly depressed”. The “Firing rate of LHb neurons” value in the assay with LHb neurons [2] (CTRL mice) was found to be 0.33±0.11 Hz; with LHb neurons [2] (FsE mice), 4.89±1.40 Hz.
As to `[Ba+2]` [barium], the “Effect on I-Baclofen” value in assay [1] (barium 1 mM) is on record as “abolished”.
